# In article PMC3991622, “Immobilised Histidine Tagged β 2-Adrenoceptor Oriented by a Diazonium Salt Reaction and Its Application in Exploring Drug-Protein Interaction Using Ephedrine and Pseudoephedrine as Probes” (PLoS ONE, 2014):
# Assays:
# [1] = system: T1, Immobilized β 2-AR; assay: Specificity and stability of the oriented β 2-AR column (retention of control drugs); type: binding, Sus scrofa; details: 20 mM phosphate buffer (pH 7.4), 0.2 mL/min; for Retention times, Immobilized β 2-AR: 37 °C, void time 1.6 min
# T1 construct: made in house; host or cells: E. coli BL21 (DE3)
# Procedure: (§1) The column containing the oriented immobilised β 2-AR was prepared by packing the stationary phase into a stainless steel column (2.1 mm×5.0 cm) using the slurry method at a pressure of 4.0×10^7 Pa. Phosphate buffer (20 mM, pH 7.4) was used as the slurry solution. The control column containing exposed silica gel and attached histidine was prepared using the same synthesis method as that of the β 2-AR column.
# (§2) The mobile phases were prepared by adding 0 to 40 µM of ephedrine hydrochloride as the competing agent to 20 mM phosphate buffer (pH 7.4). All of the mobile phases were filtrated with 0.45 µm Millipore HV filters and degassed by ultrasonication before HPAC analysis. Working solutions of ephedrine and pseudoephedrine were prepared by dissolving the drugs in phosphate buffer (20 mM, pH 7.4) to a concentration of 1.0 mM. The detection wavelength was 220 nm with an injection of 5.0 µL for each drug. The flow rate was 0.2 mL/min for all of the analyses. […] The capacity factor (k') was calculated by detecting the retention time in triplicate for each injected sample using the equation k' = (tR−t0)/t0. When the injection solute was pseudoephedrine, Eq. (1) was used to plot the curve of 1/(k'-X) and [A], whereas Eq. (2) was used to achieve the plot between [drawing 5] and [A] when ephedrine was used as the analyte.
# The specificity of the oriented β 2-AR column was tested by determining the retention times of specific drugs on the receptor.
# [2] = molecular target: T2, β 2-AR (Sus scrofa, UniProt Q28997); assay: Thermodynamic study (zonal elution at 10-45 °C, van't Hoff equation) on oriented immobilised β 2-AR; type: binding; details: for decrease of association constant / decrease of capacity factor / increase of binding sites: 10 °C to 45 °C; for capacity factor on the β 2-AR column: concentration 4.0 µM; for Kd: Association constant; for main force of the binding: semi-empirical rules of Ross et al.; for ΔS^θ: van't Hoff plot, 10-45 °C
# T2 construct: made in house; host or cells: E. coli BL21 (DE3)
# Excerpt: The thermodynamic interaction between β 2-AR and ephedrine plus pseudoephedrine was described by the van't Hoff equation, listed as Eq. (3) and (4). [drawing 3] (3) [drawing 4] (4)
# In these equations, R is the ideal gas constant (8.31 J/mol/K), and T is the temperature in Kelvin. According to the semi-empirical rules summarised by Ross et al., when ΔG^θ<0, ΔH^θ>0 and ΔS^θ>0, hydrophobic interaction is the main interaction force during the binding process of a drug to protein. […] If ΔG^θ<0, ΔH^θ<0 and ΔS^θ<0, Van der Waals forces or hydrogen bonds are the major forces of the binding.
# The thermodynamic investigation of ephedrine and pseudoephedrine on oriented immobilised β 2-AR was performed at 10, 20, 30, 37 and 45 °C. Eq. (3) and (4) were used to calculate the free energy, enthalpy and entropy during the binding of the two drugs to the receptor. The semi-empirical rules by Ross et al. were utilised to reveal the binding mechanism process of the two drugs to β 2-AR.
# [3] = molecular target: β2-ARGsαS; set-up: method as in PMID 9478963; details: read-out: dissociation constant; cited from earlier work
# [4] = system: papillary muscle; set-up: method as in PMID 3004791; details: positive inotropic effect on the papillary muscle; cited from earlier work
# [5] = molecular target: T2, β 2-AR; assay: Zonal elution on oriented immobilised β 2-AR column (HPAC); type: binding; details: for concentration of the binding site / capacity factor k′ / association constant / association constant KA: 37 °C; for types of binding site on β 2-AR: linear zonal elution plot
# Procedure: The binding of ephedrine and pseudoephedrine to the oriented immobilised β 2-AR was determined by zonal elution. The theory assumes that a known concentration of a competing agent (I) continuously passes through a column containing an immobilised ligand (L) while the injecting volume of an analyte (A) is small enough to be neglected compared with the concentration of I in the mobile phase. Assuming I and A have direct competition at a single binding site on L and the interactions have association/dissociation kinetics, Eq. (1) can be used to calculate the binding of A and I to L [24], [25]. [drawing 1] (1) where X is the capacity factor for A due to the existence of a second type of binding site on the column, and k' is the overall capacity factors of A ascribed to all the types of sites. In this case, the equation assumes the capacity factors of A produced by the individual sites are additive, and an independent estimate of the capacity factors due to the second type of site can be obtained, allowing for the capacity factor attributed to the first type of site 1 (Site 1) to be measured by k 1' = k'-X.
# When the column is equilibrated with an eluent at concentration [A] and [I] equal to zero, and the retention of compound A is injected as a perturbation, Eq. (2) is used to determine the binding of A to L: [drawing 2] (2)
# Assuming a single type of binding site, a linear expression can be obtained by plotting 1/sqrt (k') as a function of [A] to determine mL and K A. For two types of binding sites, a second term is added to the k' expressions.
# as §1, §2
# [6] = molecular target: wild-type β 2-AR; set-up: method as in PMID 8095262; details: read-out: dissociation constant; cited from earlier work
# [7] = system: β 2-AR; details: on β 2-AR; response relative to isoproterenol; cited from earlier work
# [8] = 12 µM ephedrine in mobile phase
# [9] = 24 µM ephedrine in mobile phase
# [10] = 30 µM ephedrine in mobile phase
# T2 sequence (Q28997 whole entry): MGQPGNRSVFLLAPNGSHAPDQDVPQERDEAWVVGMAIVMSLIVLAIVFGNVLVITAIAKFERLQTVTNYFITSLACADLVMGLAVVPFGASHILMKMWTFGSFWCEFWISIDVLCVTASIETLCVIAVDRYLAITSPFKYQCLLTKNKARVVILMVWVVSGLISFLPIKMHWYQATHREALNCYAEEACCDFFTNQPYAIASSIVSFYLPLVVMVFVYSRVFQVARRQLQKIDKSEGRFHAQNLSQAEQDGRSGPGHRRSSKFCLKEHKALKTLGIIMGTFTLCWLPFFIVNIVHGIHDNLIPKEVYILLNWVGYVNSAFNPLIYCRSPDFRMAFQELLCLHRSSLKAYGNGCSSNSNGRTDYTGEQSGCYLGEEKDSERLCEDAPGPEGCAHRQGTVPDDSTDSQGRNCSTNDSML
compound,measurement,setting,value
CC(C)(C)NCC(O)c1ccccc1Cl (centres unmarked) [tobuterol],peak retained or non-retained on β 2-AR column,[1],Retained
same,"Retention times, Immobilized β 2-AR",[1],12.5 min
same,"Retention times, Immobilized β 2-AR",[1]; listed as Tobuterol,9.9 min
COC(=O)CCc1ccc(OCC(O)CNC(C)C)cc1 (centres unmarked) [esmolol],peak retained or non-retained on β 2-AR column,[1],Non-retained
same,"Retention times, Immobilized β 2-AR",[1],1.6 min
"CN[C@@H](C)[C@H](O)c1ccccc1 [ephedrine, 1R,2S-ephedrine]",binding sites,[2]; 10 °C,807 µM
same,decrease of association constant,[2],1.4 fold
same,decrease of capacity factor,[2],1.2 fold
same,increase of binding sites,[2],1.2 fold
same,capacity factor on the β 2-AR column,[2]; 10 °C,5.40
same,contribution of ΔH^θ to ΔG^θ,[2]; 37 °C,29.15%
same,contribution of ΔS^θ to ΔG^θ,[2]; 37 °C,70.85%
same,binding sites,[2]; 45 °C,948 µM
same,capacity factor on the β 2-AR column,[2]; 45 °C,4.63
same,Kd,[2]; 283.15 K,139 µM
same,Kd,[2]; 293.15 K,149 µM
same,Kd,[2]; 303.15 K,161 µM
same,Kd,[2]; 310.15 K,168 µM
same,Kd,[2]; 318.15 K,193 µM
same,main force of the binding,[2],Electrostatic interaction
same,ΔS^θ,[2],50.94±0.31 J/mol·K
same,Kd,[3],5.1 ± 1.3 µM
same,pD2,[4],about 5.95
same,Kd,[5],168 µM
same,concentration of the binding site,[5],(8.92±0.06) ×10^−4 M
same,capacity factor k′,[5]; 4 µM ephedrine in mobile phase,5.01±0.02
same,capacity factor k′,[5]; 8 µM ephedrine in mobile phase,4.84±0.02
same,capacity factor k′,[5]; [8],4.58±0.03
same,capacity factor k′,[5]; 20 µM ephedrine in mobile phase,4.31±0.01
same,capacity factor k′,[5]; [9],4.08±0.01
same,capacity factor k′,[5]; [10],3.80±0.01
same,capacity factor k′,[5]; 34 µM ephedrine in mobile phase,3.64±0.01
same,association constant,"[5]; direct competitive study, pseudoephedrine injected, ephedrine as mobile phase additive",(5.98±0.24)×10^3 /M
same,association constant KA,[5]; injection analyte ephedrine (self-competitive),KA ephedrine = (5.94±0.05)×10^3 M^−1
same,association constant KA,"[5]; injection analyte ephedrine (self-competitive), listed as 1R,2S-ephedrine",(5.94±0.05)×10^3 M^−1
same,association constant KA,"[5]; injection analyte pseudoephedrine (direct competitive, ephedrine in mobile phase)",KA ephedrine = (5.98±0.24)×10^3 M^−1
same,association constant,"[5]; self-competitive study, ephedrine as analyte and competing agent",(5.94±0.05)×10^3 /M
same,types of binding site on β 2-AR,[5],Only one type of binding site
same,Kd,[6],8 µM
"CN[C@@H](C)[C@@H](O)c1ccccc1 [pseudoephedrine, 1S,2S-pseudoephedrine]",binding sites,[2]; 10 °C,807 µM
same,decrease of association constant,[2],1.5 fold
same,decrease of capacity factor,[2],1.2 fold
same,increase of binding sites,[2],1.2 fold
same,capacity factor on the β 2-AR column,[2]; 10 °C,6.36
same,binding sites,[2]; 45 °C,948 µM
same,capacity factor on the β 2-AR column,[2]; 45 °C,5.60
same,Kd,[2]; 283.15 K,202 µM
same,Kd,[2]; 293.15 K,239 µM
same,Kd,[2]; 303.15 K,249 µM
same,Kd,[2]; 310.15 K,263 µM
same,Kd,[2]; 318.15 K,299 µM
same,main force of the binding,[2],electrostatic forces
same,ΔS^θ,[2],44.13±0.01 J/mol·K
same,concentration of the binding site,[5],(8.92±0.06) ×10^−4 M
same,capacity factor k′,[5]; 2 µM ephedrine in mobile phase,5.87±0.01
same,capacity factor k′,[5]; 4 µM ephedrine in mobile phase,5.81±0.01
same,capacity factor k′,[5]; 8 µM ephedrine in mobile phase,5.73±0.01
same,capacity factor k′,[5]; [8],5.66±0.01
same,capacity factor k′,[5]; 16 µM ephedrine in mobile phase,5.54±0.03
same,capacity factor k′,[5]; [9],5.47±0.03
same,capacity factor k′,[5]; [10],5.38±0.01
same,types of binding site on β 2-AR,[5],Only one type of binding site
same,EC50,[7],309 µM
COc1cc2nc(N3CCN(C(=O)C4CCCO4)CC3)nc(N)c2cc1OC (centres unmarked) [terazosin],peak retained or non-retained on β 2-AR column,[1],Non-retained
same,"Retention times, Immobilized β 2-AR",[1],1.6 min
"CN[C@H](C)[C@@H](O)c1ccccc1 [1S,2R-ephedrine]",EC50,[7],72 µM
CN(C)C(=O)Oc1cc(OC(=O)N(C)C)cc(C(O)CNC(C)(C)C)c1 (centres unmarked) [bambuterol],peak retained or non-retained on β 2-AR column,[1],Retained
same,"Retention times, Immobilized β 2-AR",[1],49.1 min
CC(C)NCC(O)c1ccccc1Cl (centres unmarked) [clorprenaline],peak retained or non-retained on β 2-AR column,[1],Retained
same,"Retention times, Immobilized β 2-AR",[1],9.9 min
same,"Retention times, Immobilized β 2-AR",[1]; listed as Clorprenaline,12.5 min
